Activity calls are given as the source filed them. No cut-off for these calls is given here.
How the values were obtained:
Rattus norvegicus [1] = assay: Anti-atherosclerosis activity in po dosed high cholesterol diet-induced Wistar rat atherogenesis model assessed as reduction in serum total cholesterol level administered once daily measured after 4 weeks; type: functional, organism-based
Rattus norvegicus [2] = assay: Anti-atherosclerosis activity in high cholesterol diet-induced Wistar rat atherogenesis model assessed as reduction in triglyceride level at 10 to 30 mg/kg, po administered once daily measured after 4 weeks; type: functional, organism-based
Rattus norvegicus [3] = assay: Toxicity in Wistar rat assessed as effect on body weight at 10 mg/kg, po administered once daily measured after 4 weeks (reference value: 290.3 +/- 8.1 g); type: organism-based; conditions: in vivo, 672 h
Rattus norvegicus [4] = assay: Anti-atherosclerosis activity in high cholesterol diet-induced Wistar rat atherogenesis model assessed as reduction in LDL-cholesterol level at 30 mg/kg, po administered once daily measured after 4 weeks; type: functional, organism-based
Rattus norvegicus [5] = assay: Acute toxicity in Wistar rat assessed as change in body weight at 2000 mg/kg, po administered as single dose measured at 6 hrs post dose; type: organism-based; conditions: in vivo
Rattus norvegicus [6] = assay: Acute toxicity in Wistar rat assessed as effect on breathing at 2000 mg/kg, po administered as single dose measured up to 14 days; type: organism-based; conditions: in vivo, 336 h
Rattus norvegicus [7] = assay: Acute toxicity in Wistar rat assessed as change in body weight at 60 mg/kg, po administered as repeated dosing for 28 days; type: organism-based; conditions: in vivo, 672 h
Rattus norvegicus [8] = assay: Acute toxicity in Wistar rat assessed as shrinkage of adrenal gland at 2000 mg/kg, po administered as single dose measured up to 14 days; type: organism-based; conditions: in vivo, 336 h
Rattus norvegicus [9] = assay: Acute toxicity in Wistar rat assessed as effect on food intake at 60 mg/kg, po administered as repeated dosing for 28 days; type: organism-based; conditions: in vivo, 672 h
Rattus norvegicus [10] = assay: Acute toxicity in Wistar rat assessed as effect on urinary excretion at 60 mg/kg, po administered as repeated dosing for 28 days; type: organism-based; conditions: in vivo, 672 h
Rattus norvegicus [11] = assay: Acute toxicity in Wistar rat assessed as macroscopic lesions in brain at 2000 mg/kg, po administered as single dose measured up to 14 days; type: organism-based; conditions: in vivo, 336 h

CCCCNC(=O)Nc1ccc(-c2sc(C)nc2-c2ccc(C)cc2)cc1 was tested, and the Activity (Rattus norvegicus [1]) was “Dose-dependent effect”, the Activity (Rattus norvegicus [2]) was “inactive” and the Activity (Rattus norvegicus [3]) was 294 g. For the same compound, the Activity (Rattus norvegicus [4]) was “Active”, the Activity (Rattus norvegicus [5]) was “Non-Toxic” and the Activity (Rattus norvegicus [6]) was “Non-Toxic”. The Activity (Rattus norvegicus [7]) was “Non-Toxic”, the Activity (Rattus norvegicus [8]) was “Non-Toxic” and the Activity (Rattus norvegicus [9]) was “Non-Toxic”. For the same compound, the Activity (Rattus norvegicus [10]) was “Non-Toxic” and the Activity (Rattus norvegicus [11]) was “Non-Toxic”.

Reference: ChEMBL document CHEMBL4049391, “Vicinal diaryl azole-based urea derivatives as potential cholesterol lowering agents acting through inhibition of SOAT enzymes” (Eur J Med Chem, 2017)
